The values below come from the NIST ThermoML archive (doi:10.1016/j.jct.2018.03.014).

The series in a line: cn = amount concentration of the nth substance listed, in mol/dm3. The following applies: 298.15 K, 101.3 kPa, Liquid, Taylor dispersion method.

With `NCC(=O)O` [2-aminoacetic acid] + O, the binary diffusion coefficient (c1 = 0.005) was found to be 1.06e-09 m2/s and the binary diffusion coefficient (c1 = 0.1) is 1.04e-09 m2/s.
